According to ChEMBL document CHEMBL4229536, “In vitro and in vivo pharmacokinetic and pharmacodynamic study of MBRI-001, a deuterium-substituted plinabulin derivative as a potent anti-cancer agent” (Bioorg Med Chem, 2018):

What was measured:
[1] = Stability in rat plasma at 1 uM after 10 mins by LC-MS/MS analysis; type: ADME, cell-free; details: read-out: Stability
[2] = Stability in rat liver microsomes at 50 uM after 10 mins in presence of NADPH by LC-MS/MS analysis; type: ADME, microsome; details: liver microsomes, read-out: Stability
[3] = Stability in rat liver microsomes at 50 uM after 210 mins in presence of NADPH by LC-MS/MS analysis; type: ADME, microsome; details: liver microsomes, read-out: Stability
[4] = Half life in rat liver microsomes at 50 uM in presence of NADPH by LC-MS/MS analysis; type: ADME, microsome
[5] = target: Cytochrome P450 2C9 (Homo sapiens, UniProt P11712); assay: Inhibition of CYP2C9 in human liver microsomes preincubated for 10 mins followed by NADPH addition measured after 10 mins by LC-MS/MS analysis; type: ADME
Chain of Cytochrome P450 2C9 (P11712 whole entry): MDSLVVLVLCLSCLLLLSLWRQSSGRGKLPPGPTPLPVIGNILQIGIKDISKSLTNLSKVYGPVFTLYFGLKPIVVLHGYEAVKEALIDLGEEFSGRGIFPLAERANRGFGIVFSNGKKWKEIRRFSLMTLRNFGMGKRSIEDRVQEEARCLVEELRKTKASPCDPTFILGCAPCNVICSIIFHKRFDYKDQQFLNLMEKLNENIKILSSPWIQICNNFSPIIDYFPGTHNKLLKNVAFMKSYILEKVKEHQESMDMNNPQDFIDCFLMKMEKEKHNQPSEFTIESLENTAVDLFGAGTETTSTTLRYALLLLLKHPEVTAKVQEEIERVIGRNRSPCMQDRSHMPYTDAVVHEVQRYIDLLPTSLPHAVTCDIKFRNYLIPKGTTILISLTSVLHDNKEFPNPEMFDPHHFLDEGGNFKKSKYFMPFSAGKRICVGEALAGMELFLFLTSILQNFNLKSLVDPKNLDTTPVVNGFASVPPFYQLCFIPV

[6] = target: Cytochrome P450 2C19 (Homo sapiens, UniProt P33261); assay: Inhibition of CYP2C19 in human liver microsomes preincubated for 10 mins followed by NADPH addition measured after 10 mins by LC-MS/MS analysis; type: ADME
Chain of Cytochrome P450 2C19 (P33261 whole entry): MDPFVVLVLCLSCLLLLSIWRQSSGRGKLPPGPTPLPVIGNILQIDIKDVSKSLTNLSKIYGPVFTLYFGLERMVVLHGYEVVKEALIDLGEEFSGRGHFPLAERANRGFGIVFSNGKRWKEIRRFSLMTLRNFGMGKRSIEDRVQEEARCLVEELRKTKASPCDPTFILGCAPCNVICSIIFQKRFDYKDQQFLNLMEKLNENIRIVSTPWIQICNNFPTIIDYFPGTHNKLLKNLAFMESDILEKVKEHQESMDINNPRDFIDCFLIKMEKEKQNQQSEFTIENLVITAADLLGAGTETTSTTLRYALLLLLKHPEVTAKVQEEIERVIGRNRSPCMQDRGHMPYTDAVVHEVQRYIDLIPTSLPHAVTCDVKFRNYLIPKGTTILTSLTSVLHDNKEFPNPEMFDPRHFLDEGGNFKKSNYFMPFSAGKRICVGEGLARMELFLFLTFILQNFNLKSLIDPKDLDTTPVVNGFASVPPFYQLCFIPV

[7] = target: Cytochrome P450 3A4 (Homo sapiens, UniProt P08684); assay: Inhibition of CYP3A4 in human liver microsomes preincubated for 10 mins followed by NADPH addition measured after 10 mins by LC-MS/MS analysis; type: ADME
Chain of Cytochrome P450 3A4 (P08684 whole entry): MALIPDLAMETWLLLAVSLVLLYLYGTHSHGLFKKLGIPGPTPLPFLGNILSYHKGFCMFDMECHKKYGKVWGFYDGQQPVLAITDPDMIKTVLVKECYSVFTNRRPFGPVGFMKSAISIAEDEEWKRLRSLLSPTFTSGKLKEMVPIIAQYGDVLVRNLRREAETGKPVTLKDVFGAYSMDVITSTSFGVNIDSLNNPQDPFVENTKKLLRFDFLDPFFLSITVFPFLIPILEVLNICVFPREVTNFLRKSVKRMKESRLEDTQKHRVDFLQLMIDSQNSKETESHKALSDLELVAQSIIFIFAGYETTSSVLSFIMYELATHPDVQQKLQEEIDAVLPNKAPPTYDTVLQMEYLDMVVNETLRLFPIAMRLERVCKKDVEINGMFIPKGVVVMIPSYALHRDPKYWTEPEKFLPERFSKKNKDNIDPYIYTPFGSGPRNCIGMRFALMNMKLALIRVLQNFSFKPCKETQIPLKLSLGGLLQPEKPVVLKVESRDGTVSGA

[8] = Protein binding in human plasma at 2 uM after 4 hrs by LC-MS/MS analysis; type: ADME, cell-free; details: read-out: PPB (converted)
[9] = Half life in Wistar rat at 4 mg/kg, iv; type: ADME, organism-based; details: in vivo
[10] = Apparent volume of distribution in Wistar rat at 4 mg/kg, iv; type: ADME, organism-based; details: in vivo, read-out: Vz
[11] = MRTlast in Wistar rat at 4 mg/kg, iv; type: ADME, organism-based; details: in vivo
[12] = AUClast in Wistar rat at 8 mg/kg, iv; type: ADME, organism-based; parameters: dose 8 mg/kg, time 0 - last, route intravenous; details: in vivo
[13] = test system: Rattus norvegicus; assay: AUC (0 to infinity) in Wistar rat at 8 mg/kg, iv; type: ADME, organism-based; parameters: dose 8 mg/kg, route intravenous, time infinity; details: in vivo
[14] = Apparent volume of distribution in Wistar rat at 8 mg/kg, iv; type: ADME, organism-based; details: in vivo, read-out: Vz
[15] = test system: Rattus norvegicus; assay: Clearance in Wistar rat at 8 mg/kg, iv; type: ADME, organism-based; details: in vivo
[16] = MRTlast in Wistar rat at 8 mg/kg, iv; type: ADME, organism-based; details: in vivo
[17] = Drug uptake in Wistar rat kidney at 6 mg/kg, iv measured after 0.5 hrs; type: ADME, organism-based; details: in vivo
[18] = Drug uptake in Wistar rat small intestine at 6 mg/kg, iv measured after 0.5 hrs; type: ADME, organism-based; details: in vivo
[19] = Drug uptake in Wistar rat lungs at 6 mg/kg, iv measured after 0.5 hrs; type: ADME, organism-based, Lung; details: in vivo
[20] = Drug uptake in Wistar rat kidney at 6 mg/kg, iv measured after 1 hr; type: ADME, organism-based; details: in vivo
[21] = Drug uptake in Wistar rat small intestine at 6 mg/kg, iv measured after 1 hr; type: ADME, organism-based; details: in vivo
[22] = Drug uptake in Wistar rat lungs at 6 mg/kg, iv measured after 1 hr; type: ADME, organism-based, Lung; details: in vivo
[23] = Drug uptake in Wistar rat heart at 6 mg/kg, iv measured after 1 hr; type: ADME, organism-based; details: in vivo
[24] = Drug uptake in Wistar rat brain at 6 mg/kg, iv measured after 1 hr; type: ADME, organism-based; details: in vivo
[25] = Drug uptake in Wistar rat small intestine at 6 mg/kg, iv measured after 4 hrs; type: ADME, organism-based; details: in vivo
[26] = Drug uptake in Wistar rat spleen at 6 mg/kg, iv measured after 8 hrs; type: ADME, organism-based; details: in vivo
[27] = Drug uptake in Wistar rat large intestine at 6 mg/kg, iv measured after 8 hrs; type: ADME, organism-based; details: in vivo
[28] = Drug uptake in Wistar rat lungs at 6 mg/kg, iv measured after 8 hrs; type: ADME, organism-based, Lung; details: in vivo
[29] = Drug uptake in Wistar rat heart at 6 mg/kg, iv measured after 8 hrs; type: ADME, organism-based; details: in vivo
[30] = Drug uptake in Wistar rat brain at 6 mg/kg, iv measured after 8 hrs; type: ADME, organism-based; details: in vivo
[31] = Drug uptake in Wistar rat liver at 6 mg/kg, iv measured after 12 hrs; type: ADME, organism-based; details: in vivo
[32] = Drug uptake in Wistar rat small intestine at 6 mg/kg, iv measured after 12 hrs; type: ADME, organism-based; details: in vivo
[33] = Drug uptake in Wistar rat large intestine at 6 mg/kg, iv measured after 12 hrs; type: ADME, organism-based; details: in vivo
[34] = Drug excretion in Wistar rat feces at 4 mg/kg, iv measured after 72 hrs; type: ADME, organism-based; details: faeces, read-out: Drug excretion
[35] = Drug excretion in Wistar rat urine at 4 mg/kg, iv measured after 0.5 hrs; type: ADME, organism-based; details: read-out: Drug excretion
[36] = Drug excretion in Wistar rat urine at 4 mg/kg, iv measured after 8 hrs; type: ADME, organism-based; details: read-out: Drug excretion
[37] = Drug excretion in Wistar rat urine at 4 mg/kg, iv measured after 12 hrs; type: ADME, organism-based; details: read-out: Drug excretion
[38] = Drug excretion in Wistar rat urine at 4 mg/kg, iv measured after 108 hrs; type: ADME, organism-based; details: read-out: Drug excretion
[39] = test system: Mus musculus; assay: Toxicity in Balb/c mouse assessed as mortality at 10 to 15 mg/kg, iv administered three times in a day every 2 days for 15 consecutive days; type: organism-based; details: in vivo, 48 h
[40] = test system: Mus musculus; assay: Toxicity in nude mouse xenografted with human NCI-H460 cells assessed as body weight at 9 mg/kg, iv administered once in every 2 days for 14 consecutive days (reference value: 20.6 +/- 1.5 g); type: organism-based; details: in vivo, 48 h
[41] = test system: Mus musculus; assay: Toxicity in nude mouse xenografted with human NCI-H460 cells assessed as body weight at 6 mg/kg, iv administered once in every 2 days for 14 consecutive days cotreated with 50 mg/kg gefitinib once daily for 14 consecutive days (reference value: 20.6 +/- 1.5 g); type: organism-based; details: in vivo, 48 h
[42] = test system: NCI-H460; assay: Antitumor activity against human NCI-H460 cells xenografted in nude mouse assessed as inhibition of tumor weight at 9 mg/kg, iv administered once in every 2 days for 14 consecutive days relative to control; type: functional; details: 48 h
[43] = test system: NCI-H460; assay: Antitumor activity against human NCI-H460 cells xenografted in nude mouse assessed as inhibition of tumor weight at 6 mg/kg, iv administered once in every 2 days for 14 consecutive days cotreated with 50 mg/kg gefitinib once daily for 14 consecutive days relative to control; type: functional
[44] = test system: NCI-H460; assay: Antitumor activity against human NCI-H460 cells xenografted in nude mouse assessed as inhibition of tumor volume at 3 mg/kg, iv administered once in every 2 days for 14 consecutive days relative to control; type: functional; details: 48 h
[45] = test system: NCI-H460; assay: Antitumor activity against human NCI-H460 cells xenografted in nude mouse assessed as inhibition of tumor volume at 6 mg/kg, iv administered once in every 2 days for 14 consecutive days relative to control; type: functional; details: 48 h
[46] = test system: NCI-H460; assay: Antitumor activity against human NCI-H460 cells xenografted in nude mouse assessed as inhibition of tumor volume at 9 mg/kg, iv administered once in every 2 days for 14 consecutive days relative to control; type: functional; details: 48 h
[47] = test system: NCI-H460; assay: Antitumor activity against human NCI-H460 cells xenografted in nude mouse assessed as inhibition of tumor volume at 3 mg/kg, iv administered once in every 2 days for 14 consecutive days cotreated with 25 mg/kg gefitinib once daily for 14 consecutive days relative to control; type: functional
[48] = test system: Mus musculus; assay: Toxicity in nude mouse xenografted with human NCI-H460 cells assessed as death at 3 to 6 mg/kg, iv administered once in every 2 days for 14 consecutive days cotreated with 25 to 50 mg/kg gefitinib once daily for 14 consecutive days; type: organism-based; details: in vivo, 48 h

Compound: [2H]/C(c1nc[nH]c1C(C)(C)C)=c1/[nH]c(=O)/c(=C/c2ccccc2)[nH]c1=O
- remaining at 10 min, 1 µM [1]: 96.8%
- remaining at 10 min, 50 µM [2]: 80.6%
- remaining at 3.5 h, 50 µM [3]: 31.5%
- t1/2 [4]: 1.415 h
- IC50 [5]: 0.56 µM
- IC50 [6]: 3.81 µM
- IC50 [7]: > 50 µM
- fraction unbound at 4 h, 2 µM [8]: 0.021
- half-life [9]: 2.27 h
- Vd [10]: 16.4 L/kg
- MRT last [11]: 1.76 h
- AUC(0-t) [12]: 5780 ng·h/mL
- AUC [13]: 5808.24 ng·h/mL
- Vd [14]: 16.2 L/kg
- CL [15]: 64.617 mL/min/kg
- MRT last [16]: 0.96 h
- Drug uptake [17]: 7423.8 ng/mL/g
- Drug uptake [18]: 1799.2 ng/mL/g
- Drug uptake [19]: 13471.1 ng/mL/g
- Drug uptake [20]: 6768.5 ng/mL/g
- Drug uptake [21]: 1128.6 ng/mL/g
- Drug uptake [22]: 158342.2 ng/mL/g
- Drug uptake [23]: 3836.3 ng/mL/g
- Drug uptake [24]: 561 ng/mL/g
- Drug uptake [25]: 336.9 ng/mL/g
- Drug uptake [26]: 773.1 ng/mL/g
- Drug uptake [27]: 1188.5 ng/mL/g
- Drug uptake [28]: 41048.8 ng/mL/g
- Drug uptake [29]: 88 ng/mL/g
- Drug uptake [30]: 144.8 ng/mL/g
- Drug uptake [31]: 431.7 ng/mL/g
- Drug uptake [32]: 36.1 ng/mL/g
- Drug uptake [33]: 381 ng/mL/g
- dose excreted at 72 h [34]: 6.23%
- dose excreted at 0.5 h [35]: 0.02%
- dose excreted at 8 h [36]: 0.13%
- dose excreted at 12 h [37]: 0.14%
- dose excreted at 108 h [38]: 0.67%
- Activity [39]: Non-Toxic
- Activity [40]: 19.9 g
- Activity [41]: 18.5 g
- inhibition in vivo at 9 mg/kg [42]: 58.7%
- inhibition (INH) [43]: 60.5%
- inhibition in vivo at 3 mg/kg [44]: 46.9%
- inhibition in vivo at 6 mg/kg [45]: 56.9%
- inhibition in vivo at 9 mg/kg [46]: 68.2%
- inhibition (INH) [47]: 57.6%
- Activity [48]: Non-Toxic
